# Molecular target: T1, full-length human PKCι (Homo sapiens, UniProt P41743)
# T1 construct: Recombinant, full-length human PKCι expressed in Sf21 insect cells is also commercially available; purchased; host or cells: Sf21 insect cells
# T1 sequence (P41743 1-596): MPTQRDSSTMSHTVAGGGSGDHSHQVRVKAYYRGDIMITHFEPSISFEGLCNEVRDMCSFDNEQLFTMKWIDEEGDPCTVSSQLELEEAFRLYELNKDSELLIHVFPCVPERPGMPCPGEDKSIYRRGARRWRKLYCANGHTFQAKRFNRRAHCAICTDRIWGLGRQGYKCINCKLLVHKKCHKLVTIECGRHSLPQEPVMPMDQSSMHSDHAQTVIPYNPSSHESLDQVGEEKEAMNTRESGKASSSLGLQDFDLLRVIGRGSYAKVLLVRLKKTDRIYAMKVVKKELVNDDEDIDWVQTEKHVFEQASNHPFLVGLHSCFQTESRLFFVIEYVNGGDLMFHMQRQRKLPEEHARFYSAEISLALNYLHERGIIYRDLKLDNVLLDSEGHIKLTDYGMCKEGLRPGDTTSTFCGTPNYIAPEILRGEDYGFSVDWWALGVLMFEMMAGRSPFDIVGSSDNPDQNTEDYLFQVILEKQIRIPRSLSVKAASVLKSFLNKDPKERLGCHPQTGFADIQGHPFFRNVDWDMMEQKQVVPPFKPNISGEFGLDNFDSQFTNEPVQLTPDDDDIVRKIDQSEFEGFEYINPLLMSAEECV
# Test: PKCι IC50 IMAP assay, full-length PKCι at 150 μM ATP
# Format: biochemical
# Details: read-out: IC50 in IMAP assay against full length PKCi at 150 μM ATP
# In short: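 Full-length human PKCι from Sf21 cells, typically 15 pM, with 100 nM 5FAM-PKCε pseudosubstrate peptide and 150 μM ATP (5× apparent KM), 60 min at room temperature, 4% DMSO. IMAP fluorescence polarisation read-out; inhibition normalised to no-compound and no-enzyme controls, IC50 from curve fit.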
row,IC50 [nM],Structure (SMILES)
1,< 100,"c1cc(-c2nc(N3CCNCC3)c3c(C4CC4)cncc3n2)cc(N[C@@H]2CCOC2)n1 [Example 509, [4-(5-Cyclopropyl-4-piperazin-1-yl-pyrido[3,4-d]pyrimidin-2-yl)-pyridin-2-yl]-(R)-tetrahydro-furan-3-yl-amine]"
2,< 100,"FC1(F)CCC(Nc2cc(-c3nc(N4CCNCC4)c4c(C5CC5)cncc4n3)ccn2)CC1 [Example 510, [4-(5-Cyclopropyl-4-piperazin-1-yl-pyrido[3,4-d]pyrimidin-2-yl)-pyridin-2-yl]-(4,4-difluoro-cyclohexyl)-amine]"
3,100 to 1000,"FC[C@H]1CN(c2nc(-c3ccnc(Nc4cc(C(F)(F)F)ccn4)c3)nc3cncc(C4CC4)c23)CCN1 [Example 511, {4-[5-Cyclopropyl-4-((R)-3-fluoromethyl-piperazin-1-yl)-pyrido[3,4-d]pyrimidin-2-yl]-pyridin-2-yl}-(4-trifluoromethyl-pyridin-2-yl)-amine]"
4,< 100,"COc1ncccc1Nc1cc(-c2nc(N3CCNCC3)c3c(C4CC4)cncc3n2)ccn1 [Example 513, [4-(5-Cyclopropyl-4-piperazin-1-yl-pyrido[3,4-d]pyrimidin-2-yl)-pyridin-2-yl]-(2-methoxy-pyridin-3-yl)-amine]"
5,< 100,"Clc1cccc(Nc2cc(-c3nc(N4CCNCC4)c4c(C5CC5)cncc4n3)ccn2)n1 [Example 514, (6-Chloro-pyridin-2-yl)-[4-(5-cyclopropyl-4-piperazin-1-yl-pyrido[3,4-d]pyrimidin-2-yl)-pyridin-2-yl]-amine]"
6,< 100,"COc1ccccc1Nc1cc(-c2nc(N3CCNCC3)c3c(C4CC4)cncc3n2)ccn1 [Example 515, [4-(5-Cyclopropyl-4-piperazin-1-yl-pyrido[3,4-d]pyrimidin-2-yl)-pyridin-2-yl]-(2-methoxy-phenyl)-amine]"
7,< 100,"FC(F)(F)c1ccccc1Nc1cc(-c2nc(N3CCNCC3)c3c(C4CC4)cncc3n2)ccn1 [Example 516, [4-(5-Cyclopropyl-4-piperazin-1-yl-pyrido[3,4-d]pyrimidin-2-yl)-pyridin-2-yl]-(2-trifluoromethyl-phenyl)-amine]"
8,100 to 1000,"COCc1ccccc1Nc1cc(-c2nc(N3CCNCC3)c3c(C4CC4)cncc3n2)ccn1 [Example 517, [4-(5-Cyclopropyl-4-piperazin-1-yl-pyrido[3,4-d]pyrimidin-2-yl)-pyridin-2-yl]-(2-methoxymethyl-phenyl)-amine]"
9,< 100,"c1cc(-c2nc(N3CCNCC3)c3c(C4CC4)cncc3n2)cc(N[C@H]2CCOC2)n1 [Example 518, [4-(5-Cyclopropyl-4-piperazin-1-yl-pyrido[3,4-d]pyrimidin-2-yl)-pyridin-2-yl]-(S)-tetrahydro-furan-3-yl-amine]"
10,100 to 1000,"N#Cc1ccccc1Nc1cc(-c2nc(N3CCNCC3)c3c(C4CC4)cncc3n2)ccn1 [Example 519, 2-[4-(5-Cyclopropyl-4-piperazin-1-yl-pyrido[3,4-d]pyrimidin-2-yl)-pyridin-2-ylamino]-benzonitrile]"
11,< 100,"CC(C)(C)Nc1cc(-c2nc(N3CCNCC3)c3c(C4CC4)cncc3n2)ccn1 [Example 520, tert-Butyl-[4-(5-cyclopropyl-4-piperazin-1-yl-pyrido[3,4-d]pyrimidin-2-yl)-pyridin-2-yl]-amine]"
12,< 100,"Fc1ccc(F)c(Nc2cc(-c3nc(N4CCNCC4)c4c(C5CC5)cncc4n3)ccn2)c1 [Example 521, [4-(5-Cyclopropyl-4-piperazin-1-yl-pyrido[3,4-d]pyrimidin-2-yl)-pyridin-2-yl]-(2,5-difluoro-phenyl)-amine]"
13,100 to 1000,"Fc1ccc(C(F)(F)F)cc1Nc1cc(-c2nc(N3CCNCC3)c3c(C4CC4)cncc3n2)ccn1 [Example 522, [4-(5-Cyclopropyl-4-piperazin-1-yl-pyrido[3,4-d]pyrimidin-2-yl)-pyridin-2-yl]-(2-fluoro-5-trifluoromethyl-phenyl)-amine]"
14,< 100,"Cc1ccc(F)cc1Nc1cc(-c2nc(N3CCNCC3)c3c(C4CC4)cncc3n2)ccn1 [Example 523, [4-(5-Cyclopropyl-4-piperazin-1-yl-pyrido[3,4-d]pyrimidin-2-yl)-pyridin-2-yl]-(5-fluoro-2-methyl-phenyl)-amine]"
15,< 100,"Cc1ccc(C#N)cc1Nc1cc(-c2nc(N3CCNCC3)c3c(C4CC4)cncc3n2)ccn1 [Example 524, 3-[4-(5-Cyclopropyl-4-piperazin-1-yl-pyrido[3,4-d]pyrimidin-2-yl)-pyridin-2-ylamino]-4-methyl-benzonitrile]"
16,100 to 1000,"O=C1OCC2CN(c3nc(-c4ccnc(Nc5ccccc5)c4)nc4cncc(C5CC5)c34)CCN12 (centres unmarked) [Example 525, 7-[5-Cyclopropyl-2-(2-phenylamino-pyridin-4-yl)-pyrido[3,4-d]pyrimidin-4-yl]-hexahydro-oxazolo[3,4-a]pyrazin-3-one]"
17,< 100,"Fc1cccnc1Nc1cc(-c2nc(N3CCNCC3)c3c(C4CC4)cncc3n2)ccn1 [Example 526, [4-(5-Cyclopropyl-4-piperazin-1-yl-pyrido[3,4-d]pyrimidin-2-yl)-pyridin-2-yl]-(3-fluoro-pyridin-2-yl)-amine]"
18,< 100,"Cc1cccc(Cl)c1Nc1cc(-c2nc(N3CCNCC3)c3c(C4CC4)cncc3n2)ccn1 [Example 527, (2-Chloro-6-methyl-phenyl)-[4-(5-cyclopropyl-4-piperazin-1-yl-pyrido[3,4-d]pyrimidin-2-yl)-pyridin-2-yl]-amine]"
19,100 to 1000,"N#Cc1ccc(F)c(Nc2cc(-c3nc(N4CCNCC4)c4c(C5CC5)cncc4n3)ccn2)c1 [Example 528, 3-[4-(5-Cyclopropyl-4-piperazin-1-yl-pyrido[3,4-d]pyrimidin-2-yl)-pyridin-2-ylamino]-4-fluoro-benzonitrile]"
20,< 100,"CC(C)(C)c1ccc(Nc2cc(-c3nc(N4CCNCC4)c4c(C5CC5)cncc4n3)ccn2)c(Cl)c1 [Example 529, (4-tert-Butyl-2-chloro-phenyl)-[4-(5-cyclopropyl-4-piperazin-1-yl-pyrido[3,4-d]pyrimidin-2-yl)-pyridin-2-yl]-amine]"
21,< 100,"N#Cc1ccnc(Nc2cc(-c3nc(N4CCN[C@@H](CF)C4)c4c(C5CC5)cncc4n3)ccn2)c1 [Example 530, 2-{4-[5-Cyclopropyl-4-((R)-3-fluoromethyl-piperazin-1-yl)-pyrido[3,4-d]-pyrimidin-2-yl]-pyridin-2-ylamino}-iso-nicotinonitrile]"
22,< 100,"FC[C@H]1CN(c2nc(-c3ccnc(Nc4cccnc4F)c3)nc3cncc(C4CC4)c23)CCN1 [Example 531, {4-[5-Cyclopropyl-4-((R)-3-fluoromethyl-piperazin-1-yl)-pyrido[3,4-d]-pyrimidin-2-yl]-pyridin-2-yl}-(2-fluoro-pyridin-3-yl)-amine]"
23,< 100,"FC(F)(F)CNc1cc(-c2nc(N3CCNCC3)c3c(C4CC4)cncc3n2)ccn1 [Example 532, [4-(5-Cyclopropyl-4-piperazin-1-yl-pyrido[3,4-d]pyrimidin-2-yl)-pyridin-2-yl]-(2,2,2-trifluoro-ethyl)-amine]"
24,100 to 1000,"N#Cc1ccnc(Nc2cc(-c3nc(N4CCN5C(=O)OCC5C4)c4c(C5CC5)cncc4n3)ccn2)c1 (centres unmarked) [Example 533, 2-{4-[5-Cyclopropyl-4-(3-oxo-tetrahydro-oxazolo[3,4-a]pyrazin-7-yl)-pyrido[3,4-d]pyrimidin-2-yl]-pyridin-2-ylamino}-isonicotinonitrile]"
25,< 100,"FC(F)(F)c1cccc(Nc2cc(-c3nc(N4CCNCC4)c4c(C5CC5)cncc4n3)ccn2)n1 [Example 534, [4-(5-Cyclopropyl-4-piperazin-1-yl-pyrido[3,4-d]pyrimidin-2-yl)-pyridin-2-yl]-(6-trifluoromethyl-pyridin-2-yl)-amine]"
26,100 to 1000,"Fc1cncc(Nc2cc(-c3nc(N4CCNCC4)c4c(C5CC5)cncc4n3)ccn2)c1 [Example 535, [4-(5-Cyclopropyl-4-piperazin-1-yl-pyrido[3,4-d]pyrimidin-2-yl)-pyridin-2-yl]-(5-fluoro-pyridin-3-yl)-amine]"
27,1000 to 10000,"FC(F)(F)c1ncccc1Nc1cc(-c2nc(N3CCNCC3)c3c(C4CC4)cncc3n2)ccn1 [Example 536, [4-(5-Cyclopropyl-4-piperazin-1-yl-pyrido[3,4-d]pyrimidin-2-yl)-pyridin-2-yl]-(2-trifluoromethyl-pyridin-3-yl)-amine]"
28,< 100,"c1ccc(Nc2cc(-c3nc(N4CCNC5CC54)c4c(C5CC5)cncc4n3)ccn2)cc1 (centres unmarked) [Example 537, {4-[5-Cyclopropyl-4-(2,5-diaza-bicyclo-[4.1.0]hept-2-yl)-pyrido[3,4-d]-pyrimidin-2-yl]-pyridin-2-yl}-phenyl-amine]"
29,< 100,"Fc1cccc(F)c1Nc1cc(-c2nc(N3CCNC4CC43)c3c(C4CC4)cncc3n2)ccn1 (centres unmarked) [Example 538, {4-[5-Cyclopropyl-4-(2,5-diaza-bicyclo-[4.1.0]hept-2-yl)-pyrido[3,4-d]pyrimidin-2-yl]-pyridin-2-yl}-(2,6-difluoro-phenyl)-amine]"

# — patent US9914730B2, “Azaquinazoline inhibitors of Atypical protein Kinase C” (Ignyta, Inc., priority 2012, dated 2018)
